Experiments:
Format in all cases: cell-based
L6 myotube = assay: Insulin-stimulated [14C]glucose conversion to glycogen in differentiated L6 myotubes with varying LPC; conditions: 100 nM insulin, under reduced levels of lysophosphatidylcholine, FIG. 5(b)
Description: (§1) Effects of LPC on glucose metabolism were assessed using (a) HepG2 cells as a model of liver cells, (b) differentiated L6 myotubes as a model of skeletal muscle cells and (c) differentiated 3T3L1 cells as a model of adipocytes. To assess usage of glucose for glycogen biosynthesis, cells were incubated in Krebs Ringer Hepes medium with 5 mM [^14C]glucose, 100 nM insulin, and varying concentrations of LPC. At the end of the incubation period, the cells were washed and detached from the plates with 30% KOH. Carrier glycogen was then added to the cell lysate at a concentration of 40 mg/ml and then boiled for 30 min. Glycogen was precipitated from the solution by the addition of 800 μl 95% ice-cold ethanol and centrifuged at 1000×g. The pellet was re-suspended in buffer, and an aliquot of the sample was counted in a scintillation counter to determine the amount of [^14C]glucose converted to glycogen. Glucose metabolism by differentiated 3T3L1 cells was assessed based on cellular uptake of [^3H]deoxyglucose. The 3T3L1 cells were incubated in Krebs Ringer Hepes medium with 5 mM [^3H]deoxyglucose, 100 nM insulin, and varying concentration of LPC. Glucose uptake was assessed based on cellular accumulation of [^3H]deoxyglucose after a 30 min incubation period.

HepG2 cells = assay: Insulin-stimulated [14C]glucose conversion to glycogen in HepG2 cells with varying LPC; conditions: 100 nM insulin, under reduced levels of lysophosphatidylcholine, FIG. 5(a)
Description: as §1

3T3L1 adipocytes = assay: Insulin-stimulated [3H]deoxyglucose uptake in differentiated 3T3L1 adipocytes with varying LPC; conditions: 100 nM insulin, 30 min, under reduced levels of lysophosphatidylcholine, FIG. 5(c)
Description: as §1

Measured: insulin-stimulated glucose metabolism

lysophosphatidylcholine
increased: all assays above
